Data published in patent publication US20230143215A1 (priority 2020, published 2023).

Columns and labels:
Type in all cases: cell-based, human
[1] = test system: autologous T cells of healthy donors; set-up: key: +: positive response
[2] = test system: autologous T cells of healthy donors; set-up: key: +: positive response; remark: listed apart in the source
[3] = test system: autologous T cells of healthy donors; set-up: key: +: positive response; remark: listed apart in the source
[4] = test system: autologous T cells of healthy donors; set-up: key: +: positive response; remark: listed apart in the source
[5] = test system: PBMC from SARS-CoV-2 convalescent donors

Sequence	ELISpot [1]	Proliferation [2]	positive response detected on one time point with two different assays [3]	ELISA [4]	positive response detected on two time points with the same assay [3]	IFNγ ELISpot response [5]	immunogenicity compared to the other SLPs [5]
ALNTLVKQLSSNFGAISSVLNDILSRLDKV [SLP 9]	+	+	+	+	–	–	–
GNGGDAALALLLLDRLNQLESKMSGKGQ [SLP 39]	+	+	+	+	+	–	–
IRQGTDYKHWPQIAQFAPSASAFFG [SLP 46]	–	–	–	–	–	high responses	remarkably immunogenic
LFARTRSMWSFNPETNILLNV [SLP 19]	–	+	+	+	+	high responses	–
PLVDLPIGINITRFQTLLALHRSYLTPGDSSSG [SLP 32]	–	+	–	+	+	–	–
